Results as given in article PMC8037182, “Solvothermal Synthesis of Multiple Dihydropyrimidinones at a Time as Inhibitors of Eg5” (Molecules, 2021).

Tested on: Caco-2 cell line
Assay: Cytotoxicity MTS assay, Caco-2 cell line
Assay type: cell-based
Settings: for OD490 Mean / OD490 Well 1 / OD490 Well 2 / OD490 Well 3: Caco-2 cell line
Method: The positive compounds (IC50 < 100 μM) obtained from the primary Eg5 motor protein ATPase assay were tested for antiproliferative activity in vitro against Caco-2 cell line, Hela cell line, L929 cell line and T24 cell line by performing MTS assay. Cells were introduced into 96-well plates at a density of 1000 cells per well. After 24 h incubation, the cells were exposed with compounds at final concentrations ranging from 0.5 to 100 µM for 24 h. DMSO was used at a final concentration of 0.025% as blank control, monastrol was used as the positive control. Then 20 µL (CellTiter 96® AQueous One Solution Promega, Madison, WI, USA) reagent was added in each well. After 2 h at 37 °C in a 80% humidified, 5% CO2 atmosphere, the absorbance at 490 nm was recorded using a microplate reader (BIO-RAD iMark^TM). The results were obtained in three independent duplicate experiments. The primary data were shown in Supplementary Materials Tables S4–S7. The IC50 values for these compounds were calculated from a non-linear regression graph plotted between the percentage of cell viability and concentration with SPSS17.0 software.

## CCOC(=O)c1[nH]c(C2NC(=O)NC(C)=C2C(=O)Nc2ccccc2C)c(C(=O)OC)c1C (stereo not shown) [D4]
0.5μM, first assay
  OD490 Mean: 0.5704
  OD490 Well 1: 0.5884
  OD490 Well 2: 0.5582
  OD490 Well 3: 0.5647
0.5μM, second assay
  OD490 Mean: 0.5955
  OD490 Well 1: 0.5407
  OD490 Well 2: 0.6416
  OD490 Well 3: 0.6041
0.5μM, third assay
  OD490 Mean: 0.6609
  OD490 Well 1: 0.6698
  OD490 Well 2: 0.6201
  OD490 Well 3: 0.6928
1μM, first assay
  OD490 Mean: 0.5753
  OD490 Well 1: 0.5948
  OD490 Well 2: 0.5673
  OD490 Well 3: 0.5637
1μM, second assay
  OD490 Mean: 0.6402
  OD490 Well 1: 0.6433
  OD490 Well 2: 0.6589
  OD490 Well 3: 0.6185
1μM, third assay
  OD490 Mean: 0.6218
  OD490 Well 1: 0.6635
  OD490 Well 2: 0.6890
  OD490 Well 3: 0.5129
10μM, first assay
  OD490 Mean: 0.5338
  OD490 Well 1: 0.5500
  OD490 Well 2: 0.5282
  OD490 Well 3: 0.5233
10μM, second assay
  OD490 Mean: 0.5742
  OD490 Well 1: 0.5277
  OD490 Well 2: 0.6414
  OD490 Well 3: 0.5536
10μM, third assay
  OD490 Mean: 0.5630
  OD490 Well 1: 0.5899
  OD490 Well 2: 0.5614
  OD490 Well 3: 0.5377
25μM, first assay
  OD490 Mean: 0.5869
  OD490 Well 1: 0.5783
  OD490 Well 2: 0.5766
  OD490 Well 3: 0.6058
25μM, second assay
  OD490 Mean: 0.5033
  OD490 Well 1: 0.5352
  OD490 Well 2: 0.4777
  OD490 Well 3: 0.4969
25μM, third assay
  OD490 Mean: 0.5111
  OD490 Well 1: 0.5123
  OD490 Well 2: 0.4876
  OD490 Well 3: 0.5333
50μM, first assay
  OD490 Mean: 0.5039
  OD490 Well 1: 0.4576
  OD490 Well 2: 0.5055
  OD490 Well 3: 0.5485
50μM, second assay
  OD490 Mean: 0.4399
  OD490 Well 1: 0.41
  OD490 Well 2: 0.4612
  OD490 Well 3: 0.4486
50μM, third assay
  OD490 Mean: 0.4077
  OD490 Well 1: 0.4412
  OD490 Well 2: 0.4698
  OD490 Well 3: 0.3120
100μM, first assay
  OD490 Mean: 0.3850
  OD490 Well 1: 0.4202
  OD490 Well 2: 0.3796
  OD490 Well 3: 0.3553
100μM, second assay
  OD490 Mean: 0.3934
  OD490 Well 1: 0.4418
  OD490 Well 2: 0.3643
  OD490 Well 3: 0.3741
100μM, third assay
  OD490 Mean: 0.4011
  OD490 Well 1: 0.3698
  OD490 Well 2: 0.4013
  OD490 Well 3: 0.4321
MTS assay, 24 h exposure
  IC50: 80.5 µM
